Experimental data published in patent US20250034127A1, “AUTOPHAGY INDUCING COMPOUNDS AND USES THEREOF, IN PARTICULAR FOR DISEASES OF THE CNS” (Samsara Therapeutics Inc., priority 2021, published 2025).

Tested on: C57BL/6JRj mice injured by intra-nigral injections of α-syn combined with conduritol B epoxide
Assay: Mouse model of Parkinson's disease (intra-nigral α-syn plus CBE)
Format: in vivo
Conditions: 30 mg/kg per os twice a day
Description: This model (run by Neuro-Sys SAS, France) uses C57BL/6JRj mice injured by intra-nigral injections of a solution containing protofibrils of alpha-synuclein (α-syn, precisely quantified by automatic Western Blot) and combined with pharmacological inhibition of GBA by conduritol B epoxide, in aged mice. The model reproduces essential neuropathological features of PD (e.g. loss of dopaminergic neurons, α-syn aggregation, endoplasmic reticulum [ER] stress) and the neuroinflammatory response (microglia activation and release of proinflammatory cytokines) in the nigra striata area.
Animal characteristics: • Type of animal: C57BL/6JRj (Male) • Age: 18 months old • Supplier: Janvier Labs • Animal number: 7 mice per group • Acclimation and clinical signs: Animals arrived on site 7 days (one week) before the experiment to allow optimal acclimation.
• Test compound dose and administration: 30 mg/kg, per os (gavage or drinking water), twice a day • Test compound treatment: The test compound was solubilized (vehicle=water), aliquoted and stored at −20° C. Aliquots were thawed overnight at 4° C. and given twice a day (morning and afternoon). Treatment started on the day of the stereotaxic injections of α-syn preparation (Day 0). Treatment was administrated until the last day of the experiment (Day 28; =day of dissection). • CBE dose and administration: 50 mg/kg, Intraperitoneal (i.p.), twice a day. • CBE treatment: Administration of CBE (vehicle=saline [NaCl 0.9%] started on the day of the stereotaxic injections of α-syn preparation (Day 0). Treatment was administrated until the last day of the experiment (Day 28; =day of dissection), • Untreated control: vehicle (saline; i.p.) administered twice a day, […]
For overall evaluation and body mass, mice were observed daily, and body mass was monitored prior the morning drug administration. […]

[1] = day 28, compared to the α-syn/CBE injured group

SMILES: CCN1CCC(N(C)C(=O)c2csc(-c3cnn(-c4ccccc4)c3)n2)CC1 [Compound 196, N-(1-ethylpiperidin-4-yl)-N-methyl-2-(1-phenyl-1H-pyrazol-4-yl)-1,3-thiazole-4-carboxamide]
- body mass of the animals (after 4 weeks of treatment): did not significantly modify
- decrease in the number of Iba1-positive microglial cells in the SNpc [1]: > 15%
- increase in the number of dopaminergic TH positive neurons in the SNpc [1]: > 60%
